Reference: US20060276445A1, “Bicyclic 6-alkylidene-penems as class-D beta-lactamases inhibitors” (priority 2005, published 2006)

Test system: E. coli GC 2883 (OXA-10 + PSE-2)
Test: Antimicrobial susceptibility testing, microbroth dilution (NCCLS), piperacillin combined with β-lactamase inhibitor
Format: cell-based
Conditions: Escherichia coli; piperacillin as control, without inhibitor

Question: With CCN1CCN(C(=O)N[C@@H](C(=O)N[C@@H]2C(=O)N3[C@@H]2SC(C)(C)[C@@H]3C(=O)O)c2ccccc2)C(=O)C1=O [piperacillin] as the molecule, how does the MIC50 read?
Answer: > 64 µg/mL

Test system: not given
Test: not given
Conditions: not given

Question: For CN1CCc2sc(C=C3C(=O)N4C(C(=O)O)=CSC34)cc2C1 (stereo not drawn) [Example 17, 6-(5-Methyl-4,5,6,7-tetrahydro-thieno[3,2-c]pyridin-2-ylmethylene)-7-oxo-4-thia-1-aza-bicyclo[3.2.0]hept-2-ene-2-carboxylic acid], which melting point is on record?
Answer: > 250 °C

Question: With CCOC(=O)N1CCc2sc(C=C3C(=O)N4C(C(=O)O)=CSC34)cc2C1 (stereo not drawn) [Example 18, 2-(2-Carboxy-7-oxo-4-thia-1-aza-bicyclo[3.2.0]hept-2-en-6-ylidenemethyl)-6,7-dihydro-4H-thieno[3,2-c]pyridine-5-carboxylic acid ethyl ester] as the molecule, how does the melting point read?
Answer: > 250 °C

Question: Which melting point does the source give for O=C(O)C1=CS[C@@H]2/C(=C\c3cc4c(s3)CCN(Cc3ccccc3)C4)C(=O)N12 [Example 1, (5R,6Z)-6-[(5-benzyl-4,5,6,7-tetrahydrothieno[3,2-c]pyridin-2-yl)methylene]-7oxo-4-thia-1-azabicyclo[3.2.0]hept-2-ene-2-carboxylic acid] here?
Answer: 198 °C

Test system: E. coli GC 2883 (OXA-10 + PSE-2)
Test: Antimicrobial susceptibility testing, microbroth dilution (NCCLS), piperacillin combined with β-lactamase inhibitor
Format: cell-based
Conditions: MIC of piperacillin combined with a constant amount (4 ug/ml) of the inhibitor; class-D producing E. coli GC 2883 (OXA-10 + PSE-2); 35° C. for 18 hours
Experimental: Antimicrobial susceptibility testing. The in vitro activities of the antibiotic, piperacillin in this case, against resistant pathogens expressing class-D enzymes were determined by the microbroth dilution method as recommended by the National Committee for Clinical Laboratory Standards (NCCLS). (NCCLS. 2000. Methods for Dilution Antimicrobial Susceptibility Tests for Bacteria That Grow Aerobically; Approved Standards: M7-A5, vol. 19. National Committee for Clinical Laboratory Standards, Villanova, Pa.). Mueller-Hinton II broth (MHBII)(BBL Cockeysville, Md.), was used for the testing procedure. Microtiter plates containing 50 μL per well of two-fold serial dilutions of piperacillin combined with a constant amount (4 ug/ml) of a B-lactamase inhibitor were inoculated with 50 μL of inoculum to yield the appropriate density (10^5 CFU/mL) in 100 μL final volume. The plates were incubated for 18-22 hours at 35° C. in ambient air. […] The MIC50 data obtained by the above said procedure are enlisted in Table 1. […] Both OXA-10 and PSE-2 are class D β-lactamases. (Bush, K. Jacoby, G. A., Medeiros, A. A. Antimicrob. Agents Chemother., 1995, 39, 1211.)

Question: With O=C([O-])C1=CS[C@@H]2/C(=C\c3cn4c(n3)COCC4)C(=O)N12.[Na+] [Example 7, (5R),(6Z)-6-(5,6-Dihydro-8H-imidazo[2,1-c][1,4]oxazin-2-ylmethylene)-7-oxo-4-thia-1-azabicyclo[3.2.0]hept-2-ene-2-carboxylic acid, sodium salt] as the molecule, how does the “Minimal Inhibitory Concentration (MIC50) Data” value read?
Answer: 4 µg/mL

Question: Which “Minimal Inhibitory Concentration (MIC50) Data” value does the source give for COc1ccc(CN2CCc3sc(/C=C4/C(=O)N5C(C(=O)O)=CS[C@H]45)cc3C2)cc1 [Example 4] here?
Answer: 4 µg/mL

Question: Which “Minimal Inhibitory Concentration (MIC50) Data” value does the source give for CC1(C)Cc2cc(/C=C3/C(=O)N4C(C(=O)[O-])=CS[C@H]34)nn2C1.[Na+] [Example 26, (5R)(6Z)-6-(5,5-Dimethyl-4H-1.6a-diazapentalen-2-ylmethylene)-7-oxo-4-thia-1-azabicyclo[3.2.0]hept-2-ene-2-carboxylic acid, sodium salt] here?
Answer: 4 µg/mL

Question: Which “Minimal Inhibitory Concentration (MIC50) Data” value does the source give for COCC(=O)N1CCn2nc(/C=C3/C(=O)N4C(C(=O)[O-])=CS[C@H]34)cc2C1.[Na+] [Example 37, (5R),(6Z)-6-[5-(2-methoxyacetyl)-4,5,6,7-tetrahydropyrazolo[1,5-a]pyrazin-2-ylmethylene]-7-oxo-4-thia-1-azabicyclo[3.2.0]hept-2-ene-carboxylic acid, sodium salt] here?
Answer: 2 µg/mL

Question: Which “Minimal Inhibitory Concentration (MIC50) Data” value does the source give for O=C([O-])C1=CS[C@@H]2/C(=C\c3cn4c(n3)CN(Cc3ccccc3)CC4)C(=O)N12.[Na+] [Example 20, (5R),(6Z)-6-(7-Benzyl-5,6,7,8-tetrahydroimidazo[1,2-a]pyrazin-2-ylmethylene)-7-oxo-4-thia-1-azabicyclo[3.2.0]hept-2-ene-2-carboxylic acid, sodium salt] here?
Answer: 16 µg/mL

Question: Which “Minimal Inhibitory Concentration (MIC50) Data” value does the source give for O=C([O-])C1=CS[C@@H]2/C(=C\c3cc4n(n3)CCCO4)C(=O)N12.[Na+] [Example 35, (5R)(6Z)-6-(6,7-5H-Dihydropyrazolo[5,1-b]oxazin-2-Ylmethylene)-7-oxo-4-thia-1-azabicyclo[3.2.1]hept-2-ene-2-carboxylic acid, sodium salt] here?
Answer: 2 µg/mL

Question: With O=C(O)C1=CS[C@@H]2/C(=C\c3cc4c(s3)CCN(Cc3cccnc3)C4)C(=O)N12 [Example 21] as the molecule, how does the “Minimal Inhibitory Concentration (MIC50) Data” value read?
Answer: 8 µg/mL

Question: With O=C([O-])CCC(=O)N1CCn2nc(/C=C3/C(=O)N4C(C(=O)[O-])=CS[C@H]34)cc2C1.[Na+].[Na+] [Example 36, (5R),(6Z)-6-[5-(3-carboxypropionyl)-4,5,6,7-tetrahydropyrazolo[1,5-a]pyrazin-2-ylmethylene]-7-oxo-4-thia-1-azabicyclo[3.2.0]hept-2-ene-carboxylic acid, disodium salt] as the molecule, how does the “Minimal Inhibitory Concentration (MIC50) Data” value read?
Answer: 4 µg/mL

Question: With CC1(C)Cn2cc(/C=C3/C(=O)N4C(C(=O)[O-])=CS[C@H]34)nc2CN1.[Na+] [Example 29, (5R),(6Z)-6-(6,6-Dimethyl-5,6,7,8-tetrahydroimidazo[1,2-a]pyrizin-2-ylmethylene)-7-oxo-4-thia-1-azabicyclo[3.2.0]hept-2-ene-2-carboxylic acid, sodium salt] as the molecule, how does the “Minimal Inhibitory Concentration (MIC50) Data” value read?
Answer: 4 µg/mL

Question: With O=C([O-])C1=CS[C@@H]2/C(=C\c3cn4c(n3)CCC4)C(=O)N12.[Na+] [Example 6, (5R),(6Z)-6-(6,7-Dihydro-5H-pyrrolo[1,2-a]imidazol-2-ylmethylene)-7-oxo-4-thia-1-aza-bicyclo[3.2.0]hept-2-ene-2-carboxylic acid, sodium salt] as the molecule, how does the “Minimal Inhibitory Concentration (MIC50) Data” value read?
Answer: 2 µg/mL

Question: Which “Minimal Inhibitory Concentration (MIC50) Data” value does the source give for CN1Cc2nc(/C=C3/C(=O)N4C(C(=O)[O-])=CS[C@H]34)cn2CC1=O.[Na+] [Example 10, (5R),(6Z)-6-(7-Methyl-6-oxo-5,6,7,8-tetrahydro-imidazo[1,2-a]pyrazin-2-ylmethylene)-7-oxo-4-thia-1-aza-bicyclo[3.2.0]hept-2-ene-2-carboxylic acid sodium salt] here?
Answer: 8 µg/mL

Question: With O=C([O-])C1=CS[C@@H]2/C(=C\c3cn4c(n3)CSCC4)C(=O)N12.[Na+] [Example 5, (5R),(6Z)-6-(5,6-dihydro-8H-imidazo[2,1-c][1.4]thiazin-2-ylmethylene)-7-oxo-4-thia-1-azabicyclo[3.2.0]hept-2-ene-2-carboxylic acid, sodium salt] as the molecule, how does the “Minimal Inhibitory Concentration (MIC50) Data” value read?
Answer: 2 µg/mL

Question: For O=C(O)C1=CS[C@@H]2/C(=C\c3cc4c(s3)CCN(C(=O)Cc3ccccc3)C4)C(=O)N12 [Example 23], which “Minimal Inhibitory Concentration (MIC50) Data” value is on record?
Answer: 8 µg/mL

Question: Which “Minimal Inhibitory Concentration (MIC50) Data” value does the source give for CC(=O)N1CCc2sc(/C=C3/C(=O)N4C(C(=O)O)=CS[C@H]34)cc2C1 [Example 33, (5R,6Z)-6-[(5-acetyl-4,5,6,7-tetrahydrothieno[3,2-c]pyridin-2-yl)methylene]-oxo-4-thia-1-azabicyclo[3.2.0.]hept-2-ene-2-carboxylic acid] here?
Answer: 16 µg/mL

Question: With CN1CCn2cc(/C=C3/C(=O)N4C(C(=O)[O-])=CS[C@H]34)nc2C1.[Na+] [Example 2, (5R),(6Z)-6-(7-Methyl-5,6,7,8-tetrahydroimidazo[1,2-a]pyrazin-2-ylmethylene)-7-oxo-4-thia-1-aza-bicyclo[3.2.0]hept-2-ene-2-carboxylic acid, sodium salt] as the molecule, how does the “Minimal Inhibitory Concentration (MIC50) Data” value read?
Answer: 4 µg/mL

Question: Which “Minimal Inhibitory Concentration (MIC50) Data” value does the source give for O=C(O)C1=CS[C@@H]2/C(=C\c3cnc4n3CCSC4)C(=O)N12 [Example 30, (5R),(6Z)-6-(5,6-Dihydro-8-H-imidazo[2,1-c][1,4]thiazin-3-ylmethylene)-7-oxo-4-thia-1-azabicyclo[3.2.0]hept-2-ene-2-carboxylic acid] here?
Answer: 4 µg/mL

Question: Which “Minimal Inhibitory Concentration (MIC50) Data” value does the source give for O=C([O-])C1=CS[C@@H]2/C(=C\c3cc4n(n3)CCNC4)C(=O)N12.[Na+] [Example 25, (5R),(6Z)-7-Oxo-6-(4,5,6,7-tetrahydropyrazolo[1,5-a]pyrazin-2-ylmethylene)-4-thia-1-aza-bicyclo[3.2.0]hept-2-ene-2-carboxylic acid, sodium salt] here?
Answer: 4 µg/mL

Question: Which “Minimal Inhibitory Concentration (MIC50) Data” value does the source give for O=C([O-])C1=CS[C@@H]2/C(=C\c3cc4c(o3)CCC4)C(=O)N12.[Na+] [Example 27, (5R),(6Z)-6-(5,6-Dihydro-4H-cyclopenta[b]furan-2-ylmethylene)-7-oxo-4-thia-1-azabicyclo[3.2.0]hept-2-ene-2-carboxylic acid, sodium salt] here?
Answer: 2 µg/mL

Question: Which “Minimal Inhibitory Concentration (MIC50) Data” value does the source give for O=C(O)C1=CS[C@@H]2/C(=C\c3cc4c(s3)CCN(C(=O)c3cccnc3)C4)C(=O)N12 [Example 22] here?
Answer: 16 µg/mL

Question: For O=C([O-])C1=CS[C@@H]2/C(=C\c3cc4n(n3)CCS(=O)(=O)C4)C(=O)N12.[Na+] [Example 24, (5R),(6Z)-6-(5,5-Dioxo-4,5,6,7-tetrahydro-5λ^6-pyrazolo[5,1-c][1,4]thiazin-2-ylmethylene)-7-oxo-4-thia-1-azabicyclo[3.2.0]hept-2-ene-2-carboxylic acid, sodium salt], which “Minimal Inhibitory Concentration (MIC50) Data” value is on record?
Answer: 4 µg/mL

Question: For O=C([O-])C1=CS[C@@H]2/C(=C\c3cn4c(n3)CNCC4)C(=O)N12.[Na+] [Example 3, (5R),(6Z)-7-Oxo-6-(5,6,7,8-tetrahydroimidazo[1,2-a]pyrazin-2-ylmethylene)-4-thia-1-azabicyclo[3.2.0]hept-2-ene-2-carboxylic acid, sodium salt], which “Minimal Inhibitory Concentration (MIC50) Data” value is on record?
Answer: 2 µg/mL

Question: For O=C([O-])C1=CS[C@@H]2/C(=C\c3cc4n(n3)CCC4)C(=O)N12.[Na+] [Example 8, (5R),(6Z)-6-(5,6-Dihydro-4H-pyrrolo[1,2-b]pyrazol-2-ylmethylene)-7-oxo-4-thia-1-azabicyclo[3.2.0]hept-2-ene-2-carboxylic acid, sodium salt], which “Minimal Inhibitory Concentration (MIC50) Data” value is on record?
Answer: 4 µg/mL

Question: For O=C([O-])C1=CS[C@@H]2/C(=C\c3cc4n(n3)CCN(C3=NCCS3)C4)C(=O)N12.[Na+] [Example 38, (5R),(6Z)-6-[5-(4,5-Dihydrothiazol-2-yl)-4,5,6,7-tetrahydropyrazolo[1,5-a]pyrazin-2-ylmethylene]-7-oxo-4-thia-1-azabicyclo[3.2.0]hept-2-ene-2-carboxylic acid sodium salt], which “Minimal Inhibitory Concentration (MIC50) Data” value is on record?
Answer: 2 µg/mL
